Test results reported in the METLIN SMRT retention time set (Domingo-Almenara et al. 2019).

Experiment: gradient 5% acetonitrile 3 min, to 50% in 2 min, to 85% in 15 min, held 3 min, 100 µL/min
Details: column: Zorbax Extend-C18 2.1 x 50 mm; eluents: water / acetonitrile, 0.1% formic acid
Method in brief: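 Values are retention times taken from adduct peaks that software picked and an analyst inspected. The pure standards were run as mixtures of ~100 molecules on HPLC linked to a quadrupole time-of-flight mass spectrometer, in positive and negative ionization mode. A Zorbax Extend-C18 column (2.1 × 50 mm, 1.8 μm) was used at 100 μL/min with water and acetonitrile, each including 0.1% formic acid.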

Row | RP-LC retention time [s] | Compound
1 | 990 | Cc1nc(-c2csc(S(=O)(=O)N3CCC(C(=O)Nc4ccc(Cl)cc4F)CC3)c2)no1
2 | 690 | Cc1ccn2c(Nc3ccc4c(c3)OCCO4)c(-c3ccccc3)nc2c1
3 | 876 | CC1CCN(S(=O)(=O)c2ccc(-c3nnc(C(=O)NC4CC4)o3)cc2)CC1
4 | 1050 | O=C(NCCc1ccccc1)N1CCCC1c1nc(-c2cccc(Cl)c2)no1 (stereo not drawn)
5 | 721 | COc1cccc(NS(=O)(=O)c2cc(-c3[nH]ncc3C(=O)N3CCCCC3)oc2C)c1
6 | 808 | CCc1ccc(CNC(=O)c2csc(C(=O)NC)n2)cc1
7 | 677 | CCn1nccc1C(=O)N1C[C@@H]2C[C@H](NS(=O)(=O)c3ccccc3)[C@H]1C2
8 | 929 | COc1ccc(-c2nc(C)c3c(n2)N(C(C)C)C(=O)C3)cc1
9 | 1320 | CCOC(=O)c1ccccc1NC(=O)Cn1c(-c2ccc(F)cc2)nc(C)cc1=O
10 | 875 | Cc1ccc(-n2nc(N3CCN(C(=O)c4ccc(Br)o4)CC3)ccc2=O)cc1C
11 | 608 | CCc1ccc2nc(NC3=NCN(Cc4cccnc4)CN3)nc(C)c2c1
12 | 778 | CCC(=O)N1CCc2cc(N3CC(C(=O)Nc4ccc(C)cc4F)CC3=O)ccc21 (stereo not drawn)
13 | 601 | CCn1ncc(CN2CCC[C@H]2c2nc(-c3ccccc3)n[nH]2)c1C
14 | 678 | CC(C)C(=O)N1CCc2cc(C(=O)N(C)C)ccc21
15 | 989 | CCOC(=O)c1c(S(=O)(=O)N2CCc3ccccc3C2)c(C)n(C)c1C
16 | 671 | O=C(NCc1csc(C2CCCN(C(=O)C3CCCC3)C2)n1)C1CC1 (stereo not drawn)
17 | 967 | COc1ccccc1CNS(=O)(=O)c1ccc(F)c(C(=O)Nc2cc(C)ccc2C)c1
18 | 825 | CCNC(=O)C1CCN(c2nc3ccc(-c4ccc(OC)cc4)nc3s2)CC1
19 | 734 | CCOC(=O)C1CCC(CNC(=O)N2CCC(N3CCN(Cc4ccccc4)C(=O)C3=O)CC2)CC1 (stereo not drawn)
20 | 630 | NC(=O)C1CCN(C(=O)Cc2cc(-c3ccc(F)cc3)on2)CC1
21 | 984 | Cc1cc(C)cc(Nc2c(-c3ccc4c(c3)OCO4)nc3cnccn23)c1
22 | 628 | c1ccc(-c2noc(COC3CCCN(C4CCOCC4)C3)n2)cc1 (stereo not drawn)

Row | RP-LC retention time [s] | Compound
23 | 960 | COc1ccc(-c2nc(-c3cn(-c4ccc(F)cc4)nn3)no2)cc1OC
24 | 1150 | Cc1nc(-c2cccnc2)sc1C(=O)/C=C/c1ccc(Cl)cc1Cl
25 | 647 | Cc1sc2nc(SCc3ccc(C(=O)NCCO)cc3)[nH]c(=O)c2c1C
26 | 1280 | CC(C)(C)c1ccc(S(=O)(=O)N2CCCCC2C(=O)N2CCN(c3ccccc3F)CC2)cc1 (stereo not drawn)
27 | 912 | Cc1ccc2c(c1)C1CC(C)(O2)N(c2cccc(C(=O)O)c2)C(=O)N1 (stereo not drawn)
28 | 603 | O=C(NCCCN1CCCC1)c1nnc(-c2ccc(S(=O)(=O)N3CCCC3)cc2)o1
29 | 950 | COc1ccc(CCS(=O)(=O)NCC2(c3ccc(F)cc3)CC2)cc1
30 | 796 | O=C(Cn1nc2c(Oc3ccccc3)nccn2c1=O)Nc1ccc(F)cc1Cl
31 | 1330 | Fc1cccc(-c2noc(Cc3nc(-c4ccc(Cl)cc4)cs3)n2)c1
32 | 884 | COc1cc(OC)c(NC(=O)c2c(OC)cc(=O)n3c2CCCC3)cc1Cl
33 | 834 | Cc1ccc2c(c1)C(c1ccccc1)N(C(=O)c1ccc([N+](=O)[O-])cc1)CC(=O)N2 (stereo not drawn)
34 | 998 | O=C(c1cccnc1)N1CCc2c([nH]c3ccccc23)C1c1ccc(Cl)cc1 (stereo not drawn)
35 | 667 | O=C(NCc1ccc(F)cc1)c1cn2ccncc2n1
36 | 817 | COc1ccc(-c2nc3cnccn3c2Nc2cccc(Cl)c2)cc1OC
37 | 642 | COCc1nc2ccccc2n1CC(=O)NC1CCCCC1
38 | 819 | O=C(c1ccc(F)cc1)N1CCCC(c2nnc(-c3ccccc3)o2)C1 (stereo not drawn)
39 | 775 | O=C(NCc1ccc(F)cc1)c1ccc2c(c1)nc1n2CCN(Cc2ccccc2)C1=O
40 | 865 | COc1ccc(CCc2nc3nccc(-c4ccc(F)cc4)n3n2)cc1OC
41 | 938 | Cc1cc(C)cc(N2CCC(NC(=O)Nc3cccc(F)c3C)C2=O)c1 (stereo not drawn)
42 | 565 | CCN(CC)CCNC(=O)C1CCN(c2nnc3ccc(Cl)cn23)CC1
43 | 906 | COC(=O)C1=CN(C2CC2)c2cc(N3CCN(c4ccc(C(C)=O)cc4)CC3)c(F)cc2S1(=O)=O
44 | 747 | Cc1cccc(-c2noc(-c3ccc(=O)n(Cc4cccnc4)c3)n2)c1

Row | RP-LC retention time [s] | Compound
45 | 1040 | C=CCn1c(=O)c2ccccc2n(Cc2nc(-c3ccccc3Br)no2)c1=O
46 | 639 | CC1CCN(C(=O)c2cc3c(s2)CCC(C(=O)NCc2cccnc2)C3)CC1 (stereo not drawn)
47 | 548 | CCOc1cccc(CNC(=O)c2nc3cccnc3n(CC)c2=O)c1
48 | 1270 | CCOc1ccc(NC(=O)c2c(O)c3cccnc3n(-c3ccccc3)c2=O)cc1
49 | 642 | O=C(c1ccncc1)N1CCCn2nc(-c3cccs3)cc2C1
50 | 604 | O=C(Nc1ccc2c(c1)OCCO2)N1CC2(CCCCC2)CC1COc1ccncc1 (stereo not drawn)
51 | 904 | COc1ccc(-c2ccnc3nc(CC(C)C)nn23)c(F)c1
52 | 1110 | Cc1cc(NC(=O)c2[nH]c(C)c(S(=O)(=O)N3CCCCC3)c2C)ccc1Br
53 | 865 | Cc1nnc(-c2cc(NC(=O)c3ccc(F)cc3Cl)c(C)s2)o1
54 | 567 | CC(C)n1c(C2CCN(C(=O)Nc3ccc(Cl)cc3F)C2)nc2ccncc21 (stereo not drawn)
55 | 1010 | CCc1ccccc1NC(=O)C1(C)Oc2cccnc2N(C(C)C)C1=O (stereo not drawn)
56 | 729 | COc1ccc(NC(=O)C2CCN(S(=O)(=O)c3cc(C(=O)N4CCCC4)n(C)c3)CC2)cc1
57 | 551 | CN1CCN(c2cc(C(=O)O)c3cc(F)ccc3n2)CC1
58 | 795 | Cc1ccccc1NS(=O)(=O)c1cc2n(c1)CCN(CC(C)C)C2=O
59 | 644 | Cc1nccn1CC(=O)N1CCCn2cc(-c3ccccc3F)nc21
60 | 1000 | CCOc1ccc(NC(=O)C2CCN(S(=O)(=O)c3cc(-c4noc(C)n4)sc3C)CC2)cc1
61 | 753 | CC(=O)c1ccc(N2CCN(S(=O)(=O)CCCOc3ccc(F)cc3)CC2)cc1
62 | 809 | CC(C)n1c(=O)sc2cc(S(=O)(=O)N3CCC(C(=O)N4CCCC4)CC3)ccc21
63 | 626 | Cc1cc(N2CCN(C(=O)c3ccco3)CC2)nc(N2CCCCC2)n1
64 | 761 | CCOc1ccc(Nc2nc(C(=O)Nc3ccc(S(N)(=O)=O)cc3)cs2)cc1
65 | 819 | O=C1COc2cc(S(=O)(=O)N3CCCC3C(=O)NC3CCCCCC3)c(Cl)cc2N1 (stereo not drawn)
66 | 664 | CCc1nncn1C1CCN(S(=O)(=O)c2cc(OC)ccc2OC)CC1

Row | RP-LC retention time [s] | Compound
67 | 942 | CCOc1ccc(NC(=O)N(C)CCc2noc(C3CCCCC3)n2)cc1
68 | 590 | O=C(Cn1c(=O)nc(-c2ccccc2)c2ccccc21)NCCc1ccccn1
69 | 915 | Cc1nc2ccccc2c(=O)n1Cc1noc(C(=O)NCCC2=CCCCC2)n1
70 | 696 | Cc1ccc(N2CCCS2(=O)=O)cc1NC(=O)C1CCCC1
71 | 719 | COCCNC(=O)C1COC2(CCCCC2)N1C(=O)c1cccc(F)c1 (stereo not drawn)
72 | 881 | COc1ccc(C(=O)N2CCCn3nc(-c4ccc(Cl)cc4)cc3C2)cn1
73 | 649 | CCOC(=O)c1csc(NC(=O)C2CCCN2S(C)(=O)=O)n1 (stereo not drawn)
74 | 672 | COc1cc(NS(=O)(=O)c2cc3n(c2)CCCN(C)C3=O)cc(OC)c1
75 | 928 | CCc1ccc(C2=C(C)C(N3CCCN(C(=O)NC(C)(C)C)CC3)=NS2(=O)=O)cc1
76 | 634 | COc1cc(C(=O)Nc2ccc(-c3cn4cccnc4n3)cc2)cc(OC)c1OC
77 | 564 | Cc1nn(C)cc1CN1CCCCC1CCn1cc(-c2ccccc2)nn1 (stereo not drawn)
78 | 920 | Cc1oc2ncnc(N3CCCC(C(=O)NCc4cccc(Cl)c4)C3)c2c1C (stereo not drawn)
79 | 642 | COc1ccc(OC)c(S(=O)(=O)Nc2ccc(-c3cn4ccc(C)nc4n3)cc2)c1
80 | 732 | COc1ccc(OC)c(NC(=O)C2CC(=O)N(c3n[nH]c4cccc(F)c34)C2)c1 (stereo not drawn)
81 | 672 | Cc1ccn2c(NC(=O)c3ccc(F)cc3)c(-c3ccc(F)cc3)nc2c1
82 | 958 | O=C(NC1CCCc2ccccc21)c1ccc2c(c1)OCCCO2 (stereo not drawn)
83 | 1050 | CCOc1ccc(-c2noc(Cn3c(=O)n(CC4CCCO4)c(=O)c4ccccc43)n2)cc1 (stereo not drawn)
84 | 924 | CCC(=O)N1c2ccc(S(=O)(=O)N3CCCCC3)cc2CC1C(=O)NCc1ccc(Cl)cc1 (stereo not drawn)
85 | 749 | CCc1noc(NC(C)=O)c1-c1ccc(OC)c(S(=O)(=O)Nc2ccc(OC)cc2)c1
86 | 871 | Cc1cccc(N2C(=O)CN(CCCc3ccccc3)[C@H]3CS(=O)(=O)C[C@H]32)c1

Row | Compound | RP-LC retention time [s]
87 | O=C(COc1ccc(F)cc1)N1CCN(CC(F)(F)F)CC1 | 771
88 | COc1ccc(C(=O)N2[C@H]3CC[C@@H]2c2cnc(C)nc2C3)cn1 | 622
